Test results published in ChEMBL document CHEMBL1201862, “PubChem BioAssay data set” (2004).
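All cell lines were grown in 96-well plates and treated with compound for 48 hours. At the GI50, growth is halved.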 Active and inactive are the calls of the source. Cut-off read from the data, not from the text of the source: active = GI50 up to about 1.1 µM and inactive = higher.

Key:
Assay in all cases: growth of human tumour cells (NCI), 48 h
SK-MEL-2 = system: SK-MEL-2
K562 = system: K562
M14 = system: M14
CCRF-CEM = system: CCRF-CEM
SN12C = system: SN12C
NCI-H522 = system: NCI-H522
SK-MEL-5 = system: SK-MEL-5
NCI-H23 = system: NCI-H23
OVCAR-8 = system: OVCAR-8
HCT-116 = system: HCT-116
HOP-62 = system: HOP-62
NCI-H460 = system: NCI-H460
SW-620 = system: SW-620
UO-31 = system: UO-31
SNB-75 = system: SNB-75
A498 = system: A498

Measured: GI50

COc1ccc2c(c1)Cc1c-2[nH]c2cc3c(cc2c1=O)OCO3
inactive: SK-MEL-2 6.14 µM | K562 7.94 µM | M14 14.2 µM | CCRF-CEM 4.33 µM | SN12C 30.7 µM | NCI-H522 10.8 µM | SK-MEL-5 6.21 µM | NCI-H23 16.3 µM | OVCAR-8 19.1 µM | HCT-116 6.56 µM | HOP-62 17.1 µM | NCI-H460 10.3 µM | SW-620 27.5 µM | UO-31 15.8 µM

CN1CCN(c2nc(N)c(Br)c(Cl)n2)CC1
inactive: SK-MEL-2 > 100 µM | K562 > 100 µM | M14 > 100 µM | CCRF-CEM > 100 µM | SN12C > 100 µM | NCI-H522 > 100 µM | SK-MEL-5 > 100 µM | NCI-H23 > 100 µM | OVCAR-8 > 100 µM | HOP-62 > 100 µM | SNB-75 58.3 µM | NCI-H460 > 100 µM | SW-620 > 100 µM | UO-31 > 100 µM

CCCC(=O)Nc1ccc(O)c2c1C1CCCCCC21 (centres undefined)
inactive: SK-MEL-2 > 100 µM | K562 64.9 µM | M14 > 100 µM | CCRF-CEM > 100 µM | SN12C > 100 µM | NCI-H522 75.5 µM | SK-MEL-5 72.4 µM | NCI-H23 > 100 µM | OVCAR-8 > 100 µM | HCT-116 85.3 µM | HOP-62 > 100 µM | SNB-75 72.3 µM | NCI-H460 > 100 µM | SW-620 > 100 µM | UO-31 63.2 µM

[O-]c1c2c(nn1-c1ccccc1)c1ccccc1c[n+]2Cc1ccccc1
inactive: SK-MEL-2 > 100 µM | K562 > 100 µM | M14 > 100 µM | CCRF-CEM > 100 µM | SN12C > 100 µM | NCI-H522 73.6 µM | SK-MEL-5 > 100 µM | NCI-H23 > 100 µM | OVCAR-8 > 100 µM | HCT-116 > 100 µM | HOP-62 > 100 µM | SNB-75 50.4 µM | NCI-H460 > 100 µM | SW-620 > 100 µM | UO-31 > 100 µM

O=C(/C=C/c1ccccc1)CC(=O)CCC(=O)Nc1ccc(Cl)cc1
inactive: A498 > 100 µM | SK-MEL-2 > 100 µM | K562 5.58 µM | M14 28.3 µM | CCRF-CEM > 100 µM | SN12C > 100 µM | NCI-H522 > 100 µM | SK-MEL-5 > 100 µM | NCI-H23 > 100 µM | OVCAR-8 > 100 µM | HCT-116 37.8 µM | HOP-62 29.6 µM | NCI-H460 55.6 µM | SW-620 > 100 µM | UO-31 94 µM

CC#COP(=O)(OCC)OCC
inactive: A498 39.5 µM | SK-MEL-2 > 100 µM | K562 > 100 µM | M14 > 100 µM | CCRF-CEM 75 µM | SN12C > 100 µM | NCI-H522 > 100 µM | SK-MEL-5 > 100 µM | NCI-H23 > 100 µM | OVCAR-8 > 100 µM | HCT-116 > 100 µM | HOP-62 > 100 µM | NCI-H460 > 100 µM | SW-620 > 100 µM | UO-31 > 100 µM

C[N+](C)(C)CC1CCCCC1=O (centres undefined)
inactive: K562 8.63 µM | M14 16.6 µM | CCRF-CEM 4.56 µM | SN12C > 100 µM | NCI-H522 19.1 µM | SK-MEL-5 25.2 µM | NCI-H23 22.5 µM | OVCAR-8 19.2 µM | HCT-116 17.7 µM | HOP-62 > 100 µM | SNB-75 20.5 µM | NCI-H460 55.3 µM | SW-620 8.49 µM | UO-31 > 100 µM

CC(=O)C1=C(O)C2C3c4c[nH]c5cccc(c45)CC3C(C)(C)N2C1=O (centres undefined)
inactive: A498 20.1 µM | SK-MEL-2 13.1 µM | K562 45.7 µM | M14 > 100 µM | CCRF-CEM 27.2 µM | NCI-H522 11.9 µM | SK-MEL-5 11.7 µM | NCI-H23 11.6 µM | HOP-62 6.46 µM | NCI-H460 10.8 µM | SW-620 30.3 µM | UO-31 25.6 µM
